# Biological target: 5'-nucleotidase (Homo sapiens, UniProt P21589)
# Test: Inhibition of recombinant human CD73 preincubated for 15 mins followed by AMP addition measured after 10 mins by LC/MS analysis
# Chain of 5'-nucleotidase (P21589 whole entry): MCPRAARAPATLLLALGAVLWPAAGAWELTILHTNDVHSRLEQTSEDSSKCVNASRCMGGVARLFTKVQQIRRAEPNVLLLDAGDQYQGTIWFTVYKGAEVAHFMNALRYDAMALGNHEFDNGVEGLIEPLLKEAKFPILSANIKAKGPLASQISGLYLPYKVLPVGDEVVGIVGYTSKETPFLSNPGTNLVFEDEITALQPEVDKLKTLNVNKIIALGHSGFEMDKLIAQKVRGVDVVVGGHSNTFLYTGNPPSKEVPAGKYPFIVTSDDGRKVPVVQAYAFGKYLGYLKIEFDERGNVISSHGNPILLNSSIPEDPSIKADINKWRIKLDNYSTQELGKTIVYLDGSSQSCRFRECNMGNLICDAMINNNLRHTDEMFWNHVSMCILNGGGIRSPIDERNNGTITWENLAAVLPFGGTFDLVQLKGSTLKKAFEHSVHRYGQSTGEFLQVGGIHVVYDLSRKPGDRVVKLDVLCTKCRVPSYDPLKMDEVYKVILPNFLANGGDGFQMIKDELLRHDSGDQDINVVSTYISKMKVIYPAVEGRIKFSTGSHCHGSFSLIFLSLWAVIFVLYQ
row,Compound,IC50 [nM]
1,COCCOc1cc([C@@H](Oc2nn(C)c3nnc(-c4n[nH]c(=O)[nH]c4=O)cc23)C(F)F)ccn1,0.05
2,C[C@H](Nc1cc([C@@H](Oc2nn(C)c3nnc(-c4n[nH]c(=O)[nH]c4=O)cc23)C(F)F)ccn1)C(F)(F)F,0.04
3,C[C@@H](Nc1cc([C@@H](Oc2nn(C)c3nnc(-c4n[nH]c(=O)[nH]c4=O)cc23)C(F)F)ccn1)C(F)(F)F,0.04
4,Cn1nc(O[C@H](c2ccnc(OCC(C)(F)F)c2)C(F)F)c2cc(-c3n[nH]c(=O)[nH]c3=O)nnc21,0.04
